Results on five compounds are retold here after patent US4367216A, “Triiodinated 5-aminoisophthalic acid derivatives” (Schering Aktiengesellschaft, priority 1979, dated 1983).

Series [1] in a line: Stability to light and air (iodine cleavage). In kind it is physicochemical. As to conditions: comparison table of A, B and C.
A further series relates to lymphatic system of dogs. Briefly: Lymphography comparison of A, B and C after direct and indirect administration. It is filed as in vivo. How it is done: The following table compares the advantageous effects of the compounds of this invention in lymphography, using as test substances thiodipropionic acid bis[3,5-bis-(2,3-dihydroxypropyl-N-methylcarbamoyl)-2,4,6-triiodoanilide] (A) and 4,4,6,6-tetramethyl-4,6-disila-5-oxanonanedioic acid bis[3,5-bis(2,3-dihydroxypropyl-N-methylcarbamoyl)-2,4,6-triiodoanilide] (B) in comparison with the fatty acid ethyl ester of iodinated oleum papaveris (C). The test results were determined on dogs using testing methods conventional in lymphography after direct and indirect administration.

For a further series, the system named is lymphatic system. As to conditions: cited from earlier work.
For series [2] the following is noted: cited from earlier work.
The conditions of series [3]: dimeglumine salt; cited from earlier work.
[4] abbreviates: dogs, direct and indirect administration.

In the case of `CN(CC(O)CO)C(=O)c1c(I)c(NC(=O)CCSCCC(=O)Nc2c(I)c(C(=O)N(C)CC(O)CO)c(I)c(C(=O)N(C)CC(O)CO)c2I)c(I)c(C(=O)N(C)CC(O)CO)c1I` (stereo not drawn) [A, thiodipropionic acid bis[3,5-bis-(2,3-dihydroxypropyl-N-methylcarbamoyl)-2,4,6-triiodoanilide]], the Stability entry in series [1] is given as “Stable”. Besides, in the series with lymphatic system of dogs (dog, in vivo), the “Compatibility (embolism)” value is recorded as “No Embolisms” and the “Residence Time in the Body” value is “Hours”.

On to `CC(=O)Nc1c(I)c(C(=O)N[C@H]2C(O)O[C@H](CO)[C@@H](O)[C@@H]2O)c(I)c(N(C)C(C)=O)c1I` (stereo partly drawn) [metrizamide], for which the Usefulness for lymphography entry in the series on lymphatic system (in vivo) was “useless for lymphography”. In addition, in series [2] (solution of 300 mg iodine/ml, blood 7.5 atmospheres), the Osmotic pressure is 12 atmospheres.

On to `CC(=O)NCc1c(I)c(NC(C)=O)c(I)c(C(=O)O)c1I` [iodamide], for which the Compatibility result with lymphatic system (crystalline suspensions, inflammation at the injection site and in the lymphatic system) is “insufficient compatibility”. Also, the Excretion period result with lymphatic system (in vivo) is listed as “days to weeks”.

Take `CN(CC(O)CO)C(=O)c1c(I)c(NC(=O)CC[Si](C)(C)O[Si](C)(C)CCC(=O)Nc2c(I)c(C(=O)N(C)CC(O)CO)c(I)c(C(=O)N(C)CC(O)CO)c2I)c(I)c(C(=O)N(C)CC(O)CO)c1I` (stereo not drawn) [B, 4,4,6,6-tetramethyl-4,6-disila-5-oxanonanedioic acid bis[3,5-bis(2,3-dihydroxypropyl-N-methylcarbamoyl)-2,4,6-triiodoanilide]]: in series [1], the Stability result is on record as “Stable”. Besides, in the series on lymphatic system of dogs (setting [4]), the “Compatibility (embolism)” value is “No Embolisms” and the “Residence Time in the Body” value is “Hours”.

For `CNC(=O)c1c(I)c(NC(=O)CCCCC(=O)Nc2c(I)c(C(=O)O)c(I)c(C(=O)NC)c2I)c(I)c(C(=O)O)c1I` [iocarmic acid], the “Osmotic pressure compared with monomers” value in series [2] (dimeglumine salt) is “somewhat lower osmotic pressure”. The “Concentration in the urine” value in series [3] is on record as “increased”.
